{"source": "patent US8124365B2", "about": "“Identification of genotype-selective anti-tumor agents” (Whitehead Institute for Biomedical Research, priority 2003, dated 2012)", "format_in_all_cases": "cell-based, human", "key": {"[1]": {"system": "BJ-TERT/LT/ST/RAS^V12 cells", "experiment": "Pan-caspase inhibitor block of compound-induced cell death", "settings": "50 μM inhibitor"}, "TOP1": {"system": "TOP1", "experiment": "Western blot of TOP1 expression in okadaic acid-treated BJ primary cells", "excerpt": "(A-C) Western blot of lysates from BJ, BJ-TERT, BJ-TERT/LT/ST, BJ-TERT/LT/ST/RAS^V12, BJ-TERT/LT/RAS^V12 and BJ-TERT/LT/RAS^V12/ST cells with an antibody directed against topoisomerase II (A) or TOPI (B, C). In panel (C), cells were transfected with an siRNA directed against TOPI, lamic A/C or with a control double strand DNA duplex of the same length (TOPI dsDNA). In each case, the blot was probed with an antibody against eIF-4E to identify differences in the amount of protein loaded. The relative amount is quantitated below each band. […] Cell number was determined after transfection with an siRNA directed against TOPI and treatment with the indicated concentrations of camptothecin. (E) Okadaic acid, an inhibitor of PP2A and other cellular phosphatases, sensitizes primary human cells to camptothecin. BJ primary cells were treated simultaneously with the indicated concentrations of both camptothecin and okadaic acid and the effect on calcein AM viability staining was determined. […] BJ primary cells were treated with the indicated concentrations of okadaic acid and the expression level of TOPI was determined by western blot. The relative amount is quantitated below each band. […]"}, "BJ primary cells": {"system": "BJ primary cells", "experiment": "Co-treatment of BJ primary cells with camptothecin or erastin and a second compound, calcein AM viability staining", "settings": "for effect on BJ cell viability on its own: calcein AM; for sensitization of BJ cells to camptothecin: simultaneous treatment with camptothecin", "excerpt": "(A-C) Western blot of lysates from BJ, BJ-TERT, BJ-TERT/LT/ST, BJ-TERT/LT/ST/RAS^V12, BJ-TERT/LT/RAS^V12 and BJ-TERT/LT/RAS^V12/ST cells with an antibody directed against topoisomerase II (A) or TOPI (B, C). In panel (C), cells were transfected with an siRNA directed against TOPI, lamic A/C or with a control double strand DNA duplex of the same length (TOPI dsDNA). In each case, the blot was probed with an antibody against eIF-4E to identify differences in the amount of protein loaded. The relative amount is quantitated below each band. […] Cell number was determined after transfection with an siRNA directed against TOPI and treatment with the indicated concentrations of camptothecin. (E) Okadaic acid, an inhibitor of PP2A and other cellular phosphatases, sensitizes primary human cells to camptothecin. BJ primary cells were treated simultaneously with the indicated concentrations of both camptothecin and okadaic acid and the effect on calcein AM viability staining was determined. […] BJ primary cells were treated with the indicated concentrations of okadaic acid and the expression level of TOPI was determined by western blot. The relative amount is quantitated below each band.\nThe compounds in group (iii) are camptothecin (CPT) and a novel compound from a combinatorial library, which Applicants have named erastin, for eradicator of RAS and ST-expressing cells (FIG. 2). Efficient CPT-induced and erastin-induced cell death requires the presence of both ST and RAS^V12 (FIGS. 3 and 4 and Table 1). Although CPT and erastin have a similar genetic basis of selectivity, they have distinct mechanisms of action. […] The phosphatase inhibitor okadaic acid was capable of sensitizing otherwise resistant BJ primary cells to CPT (FIG. 5E), possibly because okadaic acid upregulates TOP1 (FIG. 5F)."}, "reactive oxygen species": {"system": "reactive oxygen species", "experiment": "ROS analysis, flow cytometry using H2DCF-DA", "settings": "engineered cells", "excerpt": "2′7′ dichlorodihydrofluorescein diacetate (H2DCF-DA) is a non-fluorescent cell permeable compound. The endogenous esterase enzyme inside the cell cleaves the diacetate part, and it can no longer pass out of the cell. Thus it accumulates in the cell. Then H2DCF reacts with ROS to form fluorescent dichlorofluorescene (DCF) which can be measured by flow cytometry in FL1 channel. • 1. Seed cells at 3×10^5 cells per dish in 60 mm dishes and allow to grow overnight. • 2. Treat with the test compound for different period of time (1-10 hr). • 3. Maintain one dish for untreated cells, compound treated cell and positive control dish (hydrogen peroxide treated) for each time point. • 4. Incubate the cells with 10 μM of H2DCF-DA for 10 minutes at 37° C. • 5. For positive control cells, after 5 minutes of H2DCF-DA loading, add 500 μM of hydrogen peroxide and incubate for 5 minutes further. • 6. Harvest the cell by trypsinization. • 7. Wash with cold PBS-twice. • 8. Resuspend the pellet in 100 μl of PBS and transfer into 5 ml FACS tube. • 9. Add 5 μl of propidium iodide (50 μg/ml) and incubate for 10 minutes on ice in dark. • 10. Add 400 μl of PBS and analyze by flow cytometry (Becton-Dickinson). • 11. Acquire the data and analyze using CellQuest software program. • 12. Take only propidium iodiode negative cells (viable cells) for the analysis for DCF staining using the FL1 channel, PI in FL3 channel, plot a quadrant chart."}, "[2]": {"system": "BJ-TERT/LT/ST/RAS^V12 cells", "experiment": "Calcein AM viability assay, dilution series, BJ-TERT/LT/ST/RAS^V12 tumorigenic cells", "protocol": "Described here is work carried out to identify compounds with increased potency or activity in the presence of hTERT, LT, ST, E6, E7 or RAS^V12. […] The primary screen tested (in quadruplicate) the effect of treating tumorigenic […], corresponding to 10 μM for a compound with a molecular weight of 400, which is the approximate median molecular weight of the libraries. […] In live cells, calcein AM is cleaved by intracellular esterases, forming the anionic fluorescent derivative calcein, which cannot diffuse out of live cells. […] The IC50 value (concentration required to inhibit 50% of the calcein AM signal) was calculated for each compound in each cell line (Table 1).\nCalcein acetoxylmethyl ester (AM) is a cell membrane-permeable, non-fluorescent compound that is cleaved by intracellular esterases to form the anionic, cell-impermeable, fluorescent compound calcein. Viable cells are stained by calcein because of the presence of intracellular esterases and because the intact plasma membrane prevents fluorescent calcein from leaking out of cells (Wang et al., 1993, supra). Cells were seeded in 384-well plates using a Zymark Sciclone ALH, treated with each […], washed with phosphate-buffered saline on a Packard Minitrak with a 384-well washer and incubated for four hours with 0.7 μg/mL calcein (Molecular Probes). Total fluorescence intensity in each well was recorded on a Packard Fusion platereader, and converted to a percent inhibition of signal by subtracting the instrument background and dividing by the average signal obtained when cells were not treated with any compound.\nCompounds to be retested were purchased from manufacturers. Stocks were prepared in DMSO at a concentration of 1 mg/ml in 384-well polypropylene plates with a 16-point, two-fold dilution dose curve of each compound in a column, in duplicates. Column 1-2 and 23-24 were left empty for controls. Daughter retest plates were prepared from stock retest plate by diluting 66.6 fold in DMEM in 384-well deep-deep well plates (4.5 μl transfer into 300 μl). Cells were seeded at a density of 6000 per well in 40 μl, and 20 μl was added from a daughter retest plate. […]\nThe IC50 in primary BJ cells was divided by the IC50 in BJ-TERT/LT/ST/RAS^V12 tumorigenic cells to obtain a tumor selectivity ratio for each compound. The compound selectivity for each genetic element was determined by calculating the selectivity ratio for each subsequent pair of cell lines in a series."}, "[3]": {"system": "tumor cells (BJELR cells) versus normal cells (BJEH cells)", "experiment": "Testing of erastin analogs for activity and selectivity in tumor cells versus normal cells", "excerpt": "Applicants additionally tested 135 analogs of erastin for activity and selectivity in tumor cells versus normal cells. […] This compound was named erastin B (see FIG. 8). […] BJELR cells are BJ-TERT/LT/ST/RAS^V12 cells, and BJEH are BJ-TERT cells."}, "BJELR cells": {"system": "BJELR cells", "experiment": "Screen of ACL library for suppressors of erastin activity in BJELR cells", "settings": "5 μg/ml erastin", "protocol": "ACL library comprises 1,540 compounds and all compounds were prepared in DMSO at […] in 384-well polypropylene plates and stored at −20° C. Replica daughter plates for each library plate were prepared using Zymark Scilone ALH. The daughter plates were diluted 50 fold in DMEM and compound concentration in the daughter plate is 80 μg/ml with 2% DMSO. In assay plate compound from the daughter plate is diluted 20 fold with cell suspension, thus final concentration of each compound is 4 μg/ml.\nBJELR cells were seeded at 6000 cells/well (57 μl) (for co-treatment screen) and 5000 cells/well (57 μl) (for pretreatment screen) in 384-well black, clear bottom plates using syringe bulk dispenser. For co-treatment suppressor screen, cells were treated with 3 μl of compound from the daughter plates of ACL library (final concentration in assay plate at 4 μg/ml) and at the same time treated with 5 μg/ml of erastin. Compound transfer was done using 384 fixed cannula head. Plates were incubated for 48 hours at 37° C. in incubator with 5% CO2. For the pretreatment screens, cells were pre-incubated with the compound from ACL daughter library plate for overnight and then treated with 5 μg/ml of erastin for further 48 hours. […] Fluorescence intensity was determined using Fusion platereader with filters centered in an excitation of 485 nm and emission of 535 nm. […]"}}, "data": [{"compound": "COC(=O)CC(NC(=O)OC(C)(C)C)C(=O)CF", "note": "[BOC-D-FMK, Boc-Asp(Ome)-fluoromethyl ketone]", "values": [{"measurement": "block of cell death induced by CPT", "setting": "[1]", "value": "partially blocked cell death induced by CPT"}, {"measurement": "block of cell death induced by erastin", "setting": "[1]", "value": "not by erastin"}]}, {"compound": "C=C1[C@@H](O)[C@@H]2O[C@]3(CC[C@H](/C=C/[C@@H](C)[C@@H]4CC(C)=C[C@@]5(O[C@H](C[C@@](C)(O)C(=O)O)CC[C@H]5O)O4)O3)CC[C@H]2O[C@@H]1[C@@H](O)C[C@H](C)[C@H]1O[C@@]2(CCCCO2)CC[C@H]1C", "note": "[okadaic acid]", "values": [{"measurement": "expression level of TOP1", "setting": "TOP1", "value": "stimulates expression of TOP1"}, {"measurement": "sensitization of BJ or BJ-TERT cells to erastin", "setting": "BJ primary cells", "value": "does not render BJ or BJ-TERT cells sensitive to erastin"}, {"measurement": "effect on BJ cell viability on its own", "setting": "BJ primary cells; 3.4 nM", "value": "no effect on its own"}, {"measurement": "effect on BJ cell viability on its own", "setting": "BJ primary cells; highest concentrations tested", "value": "kills BJ cells"}, {"measurement": "sensitization of BJ cells to camptothecin", "setting": "BJ primary cells", "value": "renders BJ cells sensitive to camptothecin"}]}, {"compound": "COc1cccc2c1C(=O)c1c(O)c3c(c(O)c1C2=O)C[C@@](O)(C(=O)CO)C[C@@H]3O[C@H]1C[C@H](N)[C@H](O)[C@H](C)O1", "note": "[Doxorubicin, doxorubicin]", "values": [{"measurement": "formation of reactive oxygen species", "setting": "reactive oxygen species", "value": "did not observe the formation of ROS"}]}, {"compound": "COc1cccc2c1C(=O)c1c(O)c3c(c(O)c1C2=O)C[C@@](O)(C(C)=O)C[C@@H]3O[C@H]1C[C@H](N)[C@H](O)[C@H](C)O1", "note": "[Daunorubicin, daunorubicin]", "values": [{"measurement": "formation of reactive oxygen species", "setting": "reactive oxygen species", "value": "did not observe the formation of ROS"}]}, {"compound": "O=C1c2c(O)ccc(O)c2C(=O)c2c(NCCNCCO)ccc(NCCNCCO)c21", "note": "[Mitoxantrone, mitoxantrone]", "values": [{"measurement": "Tumor Selectivity", "setting": "[2]; IC50 in primary BJ cells divided by IC50 in BJ-TERT/LT/ST/RAS^V12 tumorigenic cells", "value": 16}, {"measurement": "formation of reactive oxygen species", "setting": "reactive oxygen species", "value": "did not observe the formation of ROS"}]}, {"compound": "CCOc1ccccc1-n1c(C(C)N2CCN(C(=O)COc3ccc(Cl)cc3)CC2)nc2ccccc2c1=O", "note": "(stereo not drawn) [Erastin, erastin]", "values": [{"measurement": "effectiveness of cell death", "setting": "[2]; BJ-TERT/LT/ST/RAS^V12 cells, within 18 hours", "value": 100, "unit": "%"}]}, {"compound": "COc1cc([C@@H]2c3cc4c(cc3[C@H](O)[C@H]3COC(=O)[C@H]23)OCO4)cc(OC)c1OC", "note": "[podophyllotoxin]", "values": [{"measurement": "sensitization of BJ cells to camptothecin", "setting": "BJ primary cells", "value": "does not sensitize BJ or BJ-TERT cells to CPT"}]}, {"compound": "erastin B", "values": [{"measurement": "activity and selectivity in tumor cells versus normal cells", "setting": "[3]", "value": "active and selective, but less potent than erastin"}]}, {"compound": "Cc1c(C)c2c(c(C)c1O)CC[C@@](C)(CCC[C@H](C)CCC[C@H](C)CCCC(C)C)O2", "note": "[α-tocopherol]", "values": [{"measurement": "suppression of erastin activity", "setting": "BJELR cells", "value": "suppress erastin activity"}]}]}
